# Patent JP2021024822A, “安定化されたトリメブチンマレイン酸塩含有固形製剤” (Kyoto Pharmaceutical Industries Ltd, priority 2019, dated 2021)
# Experiment: Related substance A content of the trimebutine maleate drug substance used
# Type: physicochemical
# Conditions: drug substance used in this study
compound,measurement,value
CCC(COC(=O)c1cc(OC)c(OC)c(OC)c1)(c1ccccc1)N(C)C (stereo not shown) [トリメブチンマレイン酸塩],content of related substance A in the trimebutine maleate drug substance,0.06%
